Reference: publication PMC8269116 (Journal of psychopharmacology (Oxford, England), 2019)

What follows are molecules tested against T1, NET (Homo sapiens, UniProt P23975) (assay: [3H]norepinephrine uptake inhibition in HEK 293 cells overexpressing human NET). Conditions: not given.
T1 sequence (P23975 whole entry): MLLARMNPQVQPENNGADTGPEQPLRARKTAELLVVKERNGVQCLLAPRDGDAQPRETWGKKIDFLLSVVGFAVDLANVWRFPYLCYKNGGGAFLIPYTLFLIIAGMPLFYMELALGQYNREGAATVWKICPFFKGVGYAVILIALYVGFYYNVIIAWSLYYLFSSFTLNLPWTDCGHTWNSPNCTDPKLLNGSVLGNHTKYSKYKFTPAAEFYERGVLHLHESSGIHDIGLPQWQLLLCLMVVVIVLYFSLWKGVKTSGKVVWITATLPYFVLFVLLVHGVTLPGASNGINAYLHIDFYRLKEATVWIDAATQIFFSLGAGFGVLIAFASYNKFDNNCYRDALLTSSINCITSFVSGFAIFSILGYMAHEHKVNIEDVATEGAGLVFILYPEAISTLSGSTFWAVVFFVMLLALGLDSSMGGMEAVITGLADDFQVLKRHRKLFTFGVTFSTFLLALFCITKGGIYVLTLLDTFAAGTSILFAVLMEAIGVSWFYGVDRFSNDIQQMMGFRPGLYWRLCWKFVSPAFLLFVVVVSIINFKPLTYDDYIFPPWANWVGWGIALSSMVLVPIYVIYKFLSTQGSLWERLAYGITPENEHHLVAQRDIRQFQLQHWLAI
Format: cell-based
CNC(C)Cc1ccc2c(c1)OCO2 (stereo not shown) [MDMA, 3,4-Methylenedioxymethamphetmine, reference compound] showed an IC50 of 0.38 µM.
Molecule CC(N)Cc1ccc(O)c(O)c1 (stereo not shown) [HHA, 3,4-Dihydroxyamphetamine] has an IC50 of 0.18 µM.

What follows are molecules tested against T2, DAT (Homo sapiens, UniProt Q01959) (assay: [3H]dopamine uptake inhibition in HEK 293 cells overexpressing human DAT). Conditions: not given.
T2 sequence (Q01959 whole entry): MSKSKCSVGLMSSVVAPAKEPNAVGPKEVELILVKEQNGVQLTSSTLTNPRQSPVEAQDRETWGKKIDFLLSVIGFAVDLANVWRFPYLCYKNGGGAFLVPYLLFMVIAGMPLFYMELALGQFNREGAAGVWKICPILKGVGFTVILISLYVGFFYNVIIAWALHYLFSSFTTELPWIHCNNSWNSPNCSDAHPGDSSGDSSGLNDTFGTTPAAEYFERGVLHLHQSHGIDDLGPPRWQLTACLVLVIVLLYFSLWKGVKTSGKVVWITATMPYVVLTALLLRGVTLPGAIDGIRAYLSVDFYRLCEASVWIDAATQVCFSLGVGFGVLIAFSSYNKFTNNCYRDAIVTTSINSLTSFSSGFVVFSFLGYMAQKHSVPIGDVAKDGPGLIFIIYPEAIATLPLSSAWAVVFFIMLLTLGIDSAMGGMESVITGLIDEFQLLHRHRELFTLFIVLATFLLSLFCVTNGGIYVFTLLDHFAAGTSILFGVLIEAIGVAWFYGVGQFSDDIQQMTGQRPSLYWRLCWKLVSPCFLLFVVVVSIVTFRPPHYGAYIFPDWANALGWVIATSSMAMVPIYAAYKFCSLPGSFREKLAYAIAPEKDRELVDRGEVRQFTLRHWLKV
Format: cell-based
Molecule CNC(C)Cc1ccc2c(c1)OCO2 (stereo not shown) [MDMA, 3,4-Methylenedioxymethamphetmine, reference compound] has an IC50 of 21 µM.
CC(N)Cc1ccc(O)c(O)c1 (stereo not shown) [HHA, 3,4-Dihydroxyamphetamine] showed an IC50 of 9.6 µM.

Same assay, conditions: anomalous increase at some concentrations, non-sigmoidal curves
CC(N)Cc1ccc(O)c(O)c1 (stereo not shown) [HHA, 3,4-Dihydroxyamphetamine] was tested, and the “increase of dopamine uptake” value was “more than 200%”.

The molecules below were run against human 5-HT transporter (SERT) (Homo sapiens, UniProt P31645) (assay: [3H]5-HT uptake inhibition in HEK 293 cells overexpressing human SERT). Conditions: not given.
human 5-HT transporter (SERT), sequence (P31645 whole entry): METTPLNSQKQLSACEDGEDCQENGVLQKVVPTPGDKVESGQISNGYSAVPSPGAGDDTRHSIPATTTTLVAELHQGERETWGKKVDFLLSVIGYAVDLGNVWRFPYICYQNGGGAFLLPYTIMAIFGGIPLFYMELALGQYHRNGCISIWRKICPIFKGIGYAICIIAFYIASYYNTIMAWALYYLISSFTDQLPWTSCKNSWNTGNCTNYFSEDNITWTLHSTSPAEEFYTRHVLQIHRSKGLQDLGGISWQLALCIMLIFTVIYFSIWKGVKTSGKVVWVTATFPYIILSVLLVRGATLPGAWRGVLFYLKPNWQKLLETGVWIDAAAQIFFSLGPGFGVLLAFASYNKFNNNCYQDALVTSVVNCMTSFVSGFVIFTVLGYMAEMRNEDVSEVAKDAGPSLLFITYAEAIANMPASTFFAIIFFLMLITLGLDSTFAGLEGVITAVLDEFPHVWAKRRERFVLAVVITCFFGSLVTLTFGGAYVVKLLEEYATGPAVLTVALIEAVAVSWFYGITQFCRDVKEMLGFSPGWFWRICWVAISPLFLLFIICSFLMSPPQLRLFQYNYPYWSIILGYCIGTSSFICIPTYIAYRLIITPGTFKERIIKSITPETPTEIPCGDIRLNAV
Format: cell-based
With CNC(C)Cc1ccc2c(c1)OCO2 (stereo not shown) [MDMA, 3,4-Methylenedioxymethamphetmine, reference compound] the IC50 was 2.5 µM.
For CC(N)Cc1ccc(O)c(O)c1 (stereo not shown) [HHA, 3,4-Dihydroxyamphetamine], the IC50 was 63 µM.

The molecules below were run against T1, NET (assay: Radioligand binding, N-methyl-[3H]nisoxetine displacement). Conditions: not given.
For CNC(C)Cc1ccc2c(c1)OCO2 (stereo not shown) [MDMA, 3,4-Methylenedioxymethamphetmine, reference compound], the Ki was over 8.7 µM.
Work on CC(N)Cc1ccc(O)c(O)c1 (stereo not shown) [HHA, 3,4-Dihydroxyamphetamine] yielded a Ki of 0.79 ± 0.3 µM.

The molecules below were run against T2, DAT (assay: Radioligand binding, [3H]WIN35,428 displacement). Conditions: not given.
For CNC(C)Cc1ccc2c(c1)OCO2 (stereo not shown) [MDMA, 3,4-Methylenedioxymethamphetmine, reference compound], the Ki was over 8.5 µM.
CC(N)Cc1ccc(O)c(O)c1 (stereo not shown) [HHA, 3,4-Dihydroxyamphetamine] gave a Ki of 2.9 ± 0.3 µM.

What follows are molecules tested against SERT (Homo sapiens, UniProt P31645) (assay: Radioligand binding, [3H]citalopram displacement). Conditions: not given.
SERT, sequence (P31645 whole entry): as above
CNC(C)Cc1ccc2c(c1)OCO2 (stereo not shown) [MDMA, 3,4-Methylenedioxymethamphetmine, reference compound] was tested, and the Ki was over 7.5 µM.
Work on CC(N)Cc1ccc(O)c(O)c1 (stereo not shown) [HHA, 3,4-Dihydroxyamphetamine] yielded a Ki of over 7.4 µM.

The molecules below were run against dopamine D2 receptors (Homo sapiens, UniProt P14416) (assay: Radioligand binding, [3H]spiperone displacement). Conditions: not given.
dopamine D2 receptors, sequence (P14416 whole entry): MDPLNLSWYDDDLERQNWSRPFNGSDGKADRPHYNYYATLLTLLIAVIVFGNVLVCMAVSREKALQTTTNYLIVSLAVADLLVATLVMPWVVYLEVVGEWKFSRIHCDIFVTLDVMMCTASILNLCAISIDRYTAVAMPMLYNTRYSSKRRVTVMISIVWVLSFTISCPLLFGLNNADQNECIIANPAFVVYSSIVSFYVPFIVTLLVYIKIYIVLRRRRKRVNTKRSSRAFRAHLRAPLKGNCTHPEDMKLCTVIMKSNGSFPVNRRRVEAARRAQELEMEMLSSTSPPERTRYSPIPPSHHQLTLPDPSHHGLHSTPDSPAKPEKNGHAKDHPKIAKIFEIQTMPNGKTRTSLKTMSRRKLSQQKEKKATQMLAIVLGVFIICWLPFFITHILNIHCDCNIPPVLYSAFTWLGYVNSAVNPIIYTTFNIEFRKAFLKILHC
CNC(C)Cc1ccc2c(c1)OCO2 (stereo not shown) [MDMA, 3,4-Methylenedioxymethamphetmine, reference compound] gave a Ki of over 13 µM.
CC(N)Cc1ccc(O)c(O)c1 (stereo not shown) [HHA, 3,4-Dihydroxyamphetamine] gave a Ki of over 13 µM.

The molecules below were run against T3, α1 adrenergic receptor (α1A) (Homo sapiens, UniProt P35348) (assay: Radioligand binding, [3H]prazosin displacement). Conditions: not given.
T3 sequence (P35348 1-466): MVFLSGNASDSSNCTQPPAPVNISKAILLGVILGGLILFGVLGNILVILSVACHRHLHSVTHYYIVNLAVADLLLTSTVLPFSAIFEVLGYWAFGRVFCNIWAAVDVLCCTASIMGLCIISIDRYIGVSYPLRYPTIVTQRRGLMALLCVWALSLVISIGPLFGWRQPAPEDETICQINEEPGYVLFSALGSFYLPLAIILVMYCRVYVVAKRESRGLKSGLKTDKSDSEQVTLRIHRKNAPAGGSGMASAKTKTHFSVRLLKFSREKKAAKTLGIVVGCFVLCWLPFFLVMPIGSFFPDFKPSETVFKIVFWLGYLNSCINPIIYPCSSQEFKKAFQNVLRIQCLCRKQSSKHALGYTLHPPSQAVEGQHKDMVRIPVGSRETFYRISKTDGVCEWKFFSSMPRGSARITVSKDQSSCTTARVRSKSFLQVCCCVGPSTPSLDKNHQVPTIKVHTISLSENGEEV
CC(N)Cc1ccc(O)c(O)c1 (stereo not shown) [HHA, 3,4-Dihydroxyamphetamine] gave a Ki of over 9.5 µM.

These molecules were tested against T4, α2 adrenergic receptor (α2A) (Homo sapiens, UniProt P08913) (assay: Radioligand binding, [3H]rauwolscine displacement). Conditions: not given.
T4 sequence (P08913 1-465): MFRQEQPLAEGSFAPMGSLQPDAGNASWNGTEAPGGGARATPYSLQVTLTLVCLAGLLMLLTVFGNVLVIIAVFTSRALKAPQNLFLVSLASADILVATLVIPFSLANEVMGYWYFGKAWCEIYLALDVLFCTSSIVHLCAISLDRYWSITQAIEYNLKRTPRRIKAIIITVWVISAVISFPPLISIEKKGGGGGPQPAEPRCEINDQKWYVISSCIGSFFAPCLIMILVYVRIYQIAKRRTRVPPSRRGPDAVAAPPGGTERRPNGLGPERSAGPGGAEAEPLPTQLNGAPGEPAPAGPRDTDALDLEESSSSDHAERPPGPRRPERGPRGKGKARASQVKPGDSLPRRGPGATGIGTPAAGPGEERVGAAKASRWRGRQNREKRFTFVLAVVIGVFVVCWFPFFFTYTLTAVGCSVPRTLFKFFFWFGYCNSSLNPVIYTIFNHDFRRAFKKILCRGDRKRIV
Molecule CC(N)Cc1ccc(O)c(O)c1 (stereo not shown) [HHA, 3,4-Dihydroxyamphetamine] has a Ki of 2 ± 0.4 µM.

Each molecule was assayed against T5, 5-HT1A receptor (Homo sapiens, UniProt P08908) (assay: Radioligand binding, [3H]8-hydroxy-2-). Conditions: not given.
T5 sequence (P08908 1-422): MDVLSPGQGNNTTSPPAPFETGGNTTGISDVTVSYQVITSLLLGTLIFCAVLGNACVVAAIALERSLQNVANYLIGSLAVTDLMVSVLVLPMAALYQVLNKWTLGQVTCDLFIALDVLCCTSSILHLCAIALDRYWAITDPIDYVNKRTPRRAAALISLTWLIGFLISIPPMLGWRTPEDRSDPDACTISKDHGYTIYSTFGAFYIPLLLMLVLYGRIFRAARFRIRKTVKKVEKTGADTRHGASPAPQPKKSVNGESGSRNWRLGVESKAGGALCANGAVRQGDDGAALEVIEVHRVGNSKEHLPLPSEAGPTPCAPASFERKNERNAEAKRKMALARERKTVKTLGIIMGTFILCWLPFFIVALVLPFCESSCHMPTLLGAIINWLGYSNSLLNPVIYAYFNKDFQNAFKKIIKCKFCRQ
Molecule CC(N)Cc1ccc(O)c(O)c1 (stereo not shown) [HHA, 3,4-Dihydroxyamphetamine] has a Ki of over 18 µM.

Each molecule was assayed against 5-HT2A receptor (Homo sapiens, UniProt P28223) (assay: Radioligand binding, [3H]ketanserin displacement). Conditions: not given.
5-HT2A receptor, sequence (P28223 whole entry): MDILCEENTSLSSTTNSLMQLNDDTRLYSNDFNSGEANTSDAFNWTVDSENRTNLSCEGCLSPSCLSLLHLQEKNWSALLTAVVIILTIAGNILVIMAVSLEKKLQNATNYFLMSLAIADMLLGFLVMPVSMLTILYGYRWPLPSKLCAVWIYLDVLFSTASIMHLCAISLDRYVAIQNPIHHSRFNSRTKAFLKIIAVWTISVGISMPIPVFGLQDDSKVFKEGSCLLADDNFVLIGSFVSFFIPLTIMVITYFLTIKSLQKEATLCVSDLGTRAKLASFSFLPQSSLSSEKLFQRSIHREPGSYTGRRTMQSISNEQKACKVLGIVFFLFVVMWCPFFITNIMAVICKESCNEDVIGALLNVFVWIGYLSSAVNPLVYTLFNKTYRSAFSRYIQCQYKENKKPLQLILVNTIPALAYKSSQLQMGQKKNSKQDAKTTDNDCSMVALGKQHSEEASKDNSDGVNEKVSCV
In the case of CNC(C)Cc1ccc2c(c1)OCO2 (stereo not shown) [MDMA, 3,4-Methylenedioxymethamphetmine, reference compound], the Ki is reported as 4.6 ± 1.1 µM.
Work on CC(N)Cc1ccc(O)c(O)c1 (stereo not shown) [HHA, 3,4-Dihydroxyamphetamine] yielded a Ki of 9.2 ± 1.7 µM.

These molecules were tested against T6, 5-HT2C receptor (Homo sapiens, UniProt P28335) (assay: biochemical). Conditions: not given.
T6 sequence (P28335 33-458): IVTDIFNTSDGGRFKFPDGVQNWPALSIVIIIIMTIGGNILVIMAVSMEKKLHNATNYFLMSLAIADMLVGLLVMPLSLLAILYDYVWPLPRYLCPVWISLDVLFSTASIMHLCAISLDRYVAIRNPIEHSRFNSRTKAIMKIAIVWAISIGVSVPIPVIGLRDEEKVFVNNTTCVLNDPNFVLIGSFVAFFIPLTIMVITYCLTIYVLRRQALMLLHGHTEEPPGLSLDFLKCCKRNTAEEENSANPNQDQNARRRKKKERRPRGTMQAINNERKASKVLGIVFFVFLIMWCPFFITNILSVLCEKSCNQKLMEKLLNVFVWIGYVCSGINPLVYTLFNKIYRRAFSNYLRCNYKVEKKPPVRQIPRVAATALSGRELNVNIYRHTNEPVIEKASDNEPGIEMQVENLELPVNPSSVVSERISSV
Format: binding
CC(N)Cc1ccc(O)c(O)c1 (stereo not shown) [HHA, 3,4-Dihydroxyamphetamine] gave a Ki of over 5.1 µM.

These molecules were tested against rat TAAR1 (Rattus norvegicus, UniProt Q923Y9) (assay: Radioligand binding, [3H]RO5166017 displacement). Conditions: not given.
rat TAAR1, sequence (Q923Y9 whole entry): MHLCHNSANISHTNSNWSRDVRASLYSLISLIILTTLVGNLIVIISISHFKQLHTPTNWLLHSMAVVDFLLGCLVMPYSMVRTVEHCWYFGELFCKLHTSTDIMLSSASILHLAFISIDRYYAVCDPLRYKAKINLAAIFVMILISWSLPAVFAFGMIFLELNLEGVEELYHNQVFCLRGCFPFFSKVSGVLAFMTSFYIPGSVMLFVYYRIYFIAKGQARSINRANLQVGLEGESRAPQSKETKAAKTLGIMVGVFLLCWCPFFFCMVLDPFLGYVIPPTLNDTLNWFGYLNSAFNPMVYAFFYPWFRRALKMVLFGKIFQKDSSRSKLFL
In the case of CNC(C)Cc1ccc2c(c1)OCO2 (stereo not shown) [MDMA, 3,4-Methylenedioxymethamphetmine, reference compound], the Ki is reported as 0.25 ± 0.01 µM.
Work on CC(N)Cc1ccc(O)c(O)c1 (stereo not shown) [HHA, 3,4-Dihydroxyamphetamine] yielded a Ki of 1.9 ± 0.4 µM.

What follows are molecules tested against mouse TAAR1 (Mus musculus, UniProt Q923Y8) (assay: Radioligand binding, [3H]RO5166017 displacement). Conditions: not given.
mouse TAAR1, sequence (Q923Y8 whole entry): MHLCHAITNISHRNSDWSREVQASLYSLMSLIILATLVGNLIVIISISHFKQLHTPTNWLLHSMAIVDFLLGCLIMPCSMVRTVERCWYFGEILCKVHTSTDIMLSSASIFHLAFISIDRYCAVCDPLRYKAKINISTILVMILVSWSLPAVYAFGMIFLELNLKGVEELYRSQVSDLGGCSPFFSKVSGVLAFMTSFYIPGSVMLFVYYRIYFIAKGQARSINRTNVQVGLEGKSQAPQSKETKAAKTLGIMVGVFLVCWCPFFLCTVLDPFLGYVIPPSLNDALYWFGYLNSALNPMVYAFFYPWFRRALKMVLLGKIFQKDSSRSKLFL
CNC(C)Cc1ccc2c(c1)OCO2 (stereo not shown) [MDMA, 3,4-Methylenedioxymethamphetmine, reference compound] was tested, and the Ki was 3.1 ± 0.7 µM.
With CC(N)Cc1ccc(O)c(O)c1 (stereo not shown) [HHA, 3,4-Dihydroxyamphetamine] the Ki was 1.4 ± 0.2 µM.
